Data from patent publication US20070232601A1, “Vla-4 Inhibitor” (priority 2004, published 2007).

Biological target: T1, hα4 and β1 integrins (VLA-4) (Homo sapiens, UniProt P05556+P13612)
T1 construct: expressed in transfected cells; host or cells: CHO cells
Assay: In vitro evaluation: inhibition of binding of CHO cells expressing hα4 and β1 integrins to Eu3+-hVCAM-1 D1D7-IgG
Settings: ligand Eu3+-hVCAM-1 D1D7-IgG 2 nM, Ki calculated from IC50
Experimental: CHO cells which were forced to be expressed by transduction of hα4 and β1 integrins are seeded (3×10^4 cells/100 μl/well) on a Costar 3599 plate, and cultured for 2 days. A medium is washed with a buffer A* two times, and Eu^3+-hVCAM-1 D1D7-IgG which was diluted with an assay buffer A** to 2 nM is added at 50 μl/well. A test substance which was diluted with 2% DMSO-assay buffer (in the presence or the absence of 6% human serum albumin) is added at 50 μl/well (A solution which was separately diluted is added to a well in which Scatchard analysis is performed), this is stirred with a plate mixer for 5 minutes, and allowed to stand at room temperature for 1 hour. Thereafter, this is washed with a buffer A four times, a potentiating reagent (manufactured by DELFIA) is added at 100 μl/well, this is shaken for 5 minutes using a plate mixer, and a fluorescence intensity is measured with a time-resolved fluorometer (DELFIA Wallac). IC50 (concentration at which binding of CHO cell and Eu^3+-hVCAM-1 D1D7-IgG is inhibited by 50%) of a test substance is obtained from an integration rate obtained from a calculation equation: [(FT−FNS)−(FI−FNS)]/[(FT−FNS)]×100, wherein FT indicates a fluorescence intensity of a well not containing a test substance, FNS indicates a fluorescence intensity of a well not containing a test substance and hVCAM-1 D1D7-IgG, and FI indicates a fluorescence intensity containing a test substance. A Kd value showing strength of binding and Bmax (maximum binding amount) were presumed in a range of 0.06 to 20 nM according to the Scachard analysis method. [formula]
A Ki value was calculated according to the above equation ([L] is ligand concentration)
[* buffer A: 25 mM HEPES (pH 7.5), 150 mM NaCl, 1 mM Ca^2+, 1 mM Mg^2+, 4 mM Mn^2+; ** assay buffer: 25 mM HEPES (pH 7.5), 150 mM NaCl, 1 mM Ca^2+, 1 mM Mg^2+, 4 mM Mn^2+, 0.1% BSA, 20 μM DTPA, with/without 6% ALBUMIN, HUMAN SERUM (C/NA-1653, SIGMA)]

T1 sequence (P13612 34-1032): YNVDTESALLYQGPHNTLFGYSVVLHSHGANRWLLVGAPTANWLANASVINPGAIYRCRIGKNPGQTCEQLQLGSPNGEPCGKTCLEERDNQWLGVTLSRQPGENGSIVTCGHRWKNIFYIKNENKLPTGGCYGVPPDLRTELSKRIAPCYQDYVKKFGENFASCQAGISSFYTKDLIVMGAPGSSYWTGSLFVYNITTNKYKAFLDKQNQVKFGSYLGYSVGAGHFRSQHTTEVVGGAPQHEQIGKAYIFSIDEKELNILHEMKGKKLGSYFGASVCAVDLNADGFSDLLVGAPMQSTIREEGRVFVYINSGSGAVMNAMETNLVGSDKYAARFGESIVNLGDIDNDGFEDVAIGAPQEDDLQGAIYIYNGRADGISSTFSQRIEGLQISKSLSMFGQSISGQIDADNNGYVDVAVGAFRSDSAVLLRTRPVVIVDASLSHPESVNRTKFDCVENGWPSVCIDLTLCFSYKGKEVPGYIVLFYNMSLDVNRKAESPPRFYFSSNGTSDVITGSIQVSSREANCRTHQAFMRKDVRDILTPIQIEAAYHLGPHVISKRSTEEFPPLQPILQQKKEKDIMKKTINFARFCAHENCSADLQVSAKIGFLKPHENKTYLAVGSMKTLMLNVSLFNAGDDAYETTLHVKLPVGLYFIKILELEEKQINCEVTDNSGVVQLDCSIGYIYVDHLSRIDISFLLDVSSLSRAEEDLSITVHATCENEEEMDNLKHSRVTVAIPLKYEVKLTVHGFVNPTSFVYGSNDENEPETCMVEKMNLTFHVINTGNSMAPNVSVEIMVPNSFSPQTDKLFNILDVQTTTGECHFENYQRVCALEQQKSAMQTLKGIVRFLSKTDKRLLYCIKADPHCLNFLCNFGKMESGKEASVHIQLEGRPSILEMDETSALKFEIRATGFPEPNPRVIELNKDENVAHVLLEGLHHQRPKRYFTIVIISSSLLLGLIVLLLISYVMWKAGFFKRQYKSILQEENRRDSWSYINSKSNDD
T1 sequence (P05556 21-798): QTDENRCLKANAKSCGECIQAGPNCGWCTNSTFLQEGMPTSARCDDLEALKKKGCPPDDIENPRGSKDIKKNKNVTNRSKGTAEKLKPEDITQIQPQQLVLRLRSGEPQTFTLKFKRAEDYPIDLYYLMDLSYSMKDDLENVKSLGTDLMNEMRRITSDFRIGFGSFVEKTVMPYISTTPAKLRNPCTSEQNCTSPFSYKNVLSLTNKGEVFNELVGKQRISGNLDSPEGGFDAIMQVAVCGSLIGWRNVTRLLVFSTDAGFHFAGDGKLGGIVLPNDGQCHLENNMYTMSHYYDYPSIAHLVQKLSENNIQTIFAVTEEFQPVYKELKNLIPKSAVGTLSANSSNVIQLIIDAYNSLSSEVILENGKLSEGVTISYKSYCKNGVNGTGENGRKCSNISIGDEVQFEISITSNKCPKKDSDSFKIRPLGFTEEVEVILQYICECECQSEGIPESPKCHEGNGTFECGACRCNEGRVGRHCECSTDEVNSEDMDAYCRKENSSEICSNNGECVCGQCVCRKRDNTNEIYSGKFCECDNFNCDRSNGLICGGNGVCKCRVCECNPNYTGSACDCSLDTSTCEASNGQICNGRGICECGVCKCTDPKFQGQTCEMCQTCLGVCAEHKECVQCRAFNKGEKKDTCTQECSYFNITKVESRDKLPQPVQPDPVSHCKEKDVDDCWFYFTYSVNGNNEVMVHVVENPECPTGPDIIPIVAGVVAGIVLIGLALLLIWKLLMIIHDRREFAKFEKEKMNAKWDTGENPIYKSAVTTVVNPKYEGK

Ki | SMILES
1.2 nM | Cn1cc(C(=O)Nc2cc(F)c(CC(=O)N3CCC[C@H]3c3ncc(CCC(=O)O)s3)cc2Cl)c2ccccc21 [Example 27, 3-[2-[1-[5-Chloro-2-fluoro-4-(1-methyl-3-indolylcarbonyl)aminophenylacetyl]-(2S)-pyrrolidinyl]-5-thiazolyl]propionic acid]
4.5 nM | CON(C)[C@H]1C[C@@H](c2ncc(CCC(=O)O)s2)N(C(=O)Cc2cc(Cl)c(NC(=O)c3cn(C)c4ccccc34)cc2F)C1 [Example 127, 3-[2-[1-[5-Chloro-2-fluoro-4-(1-methyl-3-indolylcarbonylamino)phenylacetyl]-(4S)—N,O-dimethylhydroxylamino-(2S)-pyrrolidinyl]-5-thiazolyl]propionic acid]
2.4 nM | CON(C)[C@H]1C[C@@H](c2ncc(CCC(=O)O)s2)N(C(=O)Cc2cc(Cl)c(NC(=O)c3csc4ccccc34)cc2F)C1 [Example 129, 3-[2-[1-[4-(3-Benzo[b]thiophenylcarbonylamino)-5-chloro-2-fluorophenylacetyl]-(4S)—N,O-dimethylhydroxylamino-(2S)-pyrrolidinyl]-5-thiazolyl]propionic acid]
0.35 nM | COc1ccccc1Nc1nc2ccc(CC(=O)N3C[C@@H](F)C[C@H]3c3ncc(CCC(=O)O)s3)c(F)c2o1 [Example 23, 3-[2-[1-[[7-Fluoro-2-(2-methoxyphenylamino)-1,3-benzoxazol-6-yl]acetyl]-(4S)-fluoro-(2S)-pyrrolidinyl]-5-thiazolyl]propionic acid]
1.6 nM | O=C(O)CCc1cnc([C@@H]2[C@@H](O)CCN2C(=O)Cc2cc(Cl)c(NC(=O)c3csc4ccccc34)cc2F)s1 [Example 122]
13 nM | CON(C)[C@H]1C[C@@H](c2ncc(CCC(=O)O)s2)N(C(=O)Cc2cc(Cl)c(NC(=O)c3coc4ccccc34)cc2Cl)C1 [Example 132, 3-[2-[1-[-(3-Benzo[b]furanylcarbonylamino)-2,5-dichlorophenylacetyl]-(4S)—N,O-dimethylhydroxylamino-(2S)-pyrrolidinyl]-5-thiazolyl]propionic acid]
0.4 nM | CO[C@H]1C[C@@H](c2ncc(CCC(=O)O)s2)N(C(=O)Cc2cc(Cl)c(NC(=O)c3coc4ccccc34)cc2F)C1 [Example 6, 3-[2-[1-[4-[(1-Benzofuran-3-ylcarbonyl)amino]-5-chloro-2-fluorophenylacetyl]-(4S)-methoxy-(2S)-pyrrolidinyl]-5-thiazolyl]propionic acid]
66 nM | COC[C@@H]1CC[C@@H](c2ncc(CCC(=O)O)s2)N1C(=O)Cc1cc(Cl)c(NC(=O)c2coc3ccccc23)cc1F [Example 56, 3-[2-[1-[4-[(1-Benzofuran-3-ylcarbonyl)amino]-5-chloro-2-fluorophenylacetyl]-(5S)-methoxymethyl-(2S)-pyrrolidinyl]-5-thiazolyl]propionic acid]
0.34 nM | CO[C@H]1C[C@@H](c2ncc(CCC(=O)O)s2)N(C(=O)Cc2ccc3nc(Nc4cc(F)ccc4C)oc3c2F)C1 [Example 8]
17 nM | Cn1cc(C(=O)Nc2cc(F)c(CC(=O)N3[C@H](c4ncc(CCC(=O)O)s4)C[C@@H]4CCCC[C@@H]43)cc2Cl)c2ccccc21 [Example 59, 3-[2-[1-[5-Chloro-2-fluoro-4-(1-methyl-3-indolylcarbonyl)aminophenylacetyl]-(2S)-octahydroindolyl]-5-thiazolyl]propionic acid]
7.7 nM | CCO[C@H]1CCN(C(=O)Cc2cc(Cl)c(NC(=O)c3csc4ccccc34)cc2Cl)[C@@H]1c1ncc(CCC(=O)O)o1 [Example 100]
6 nM | O=C(O)CCc1cnc([C@@H]2C[C@@H]3CCCC[C@@H]3N2C(=O)Cc2cc(Cl)c(NC(=O)c3csc4ccccc34)cc2F)s1 [Example 61, 3-[2-[1-[4-[(3-Benzo[b]thienylcarbonyl)amino]-5-chloro-2-fluorophenylacetyl]-(2S)-octahydroindolyl]-5-thiazolyl]propionic acid]
35 nM | O=C(O)CCc1cnc([C@@H]2[C@@H](O)CCN2C(=O)Cc2cc(Cl)c(Nc3nc4ccccc4o3)cc2F)s1 [Example 117, 3-[2-[1-[4-(2-Benzoxazolyl)amino-5-chloro-2-fluorophenyl]acetyl-(3S)-hydroxy-(2S)-pyrrolidinyl]-5-thiazolyl]propionic acid]
0.96 nM | COc1ccc(F)cc1Nc1nc2ccc(CC(=O)N3C[C@@H](OC)C[C@H]3c3ncc(CCC(=O)O)s3)c(F)c2o1 [Example 9, 3-[2-[1-[[7-Fluoro-2-(5-fluoro-2-methoxyphenylamino)-1,3-benzoxazol-6-yl]acetyl]-(4S)-methoxy-(2S)-pyrrolidinyl]-5-thiazolyl]propionic acid]
16 nM | COC[C@@H]1CC[C@@H](c2ncc(CCC(=O)O)s2)N1C(=O)Cc1cc(Cl)c(NC(=O)c2cn(C)c3ccccc23)cc1F [Example 53, 3-[2-[1-[5-Chloro-2-fluoro-4-(1-methyl-3-indolylcarbonyl)aminophenylacetyl]-(5S)-methoxymethyl-(2S)-pyrrolidinyl]-5-thiazolyl]propionic acid]
0.86 nM | O=C(O)CCc1cnc([C@@H]2CCCN2C(=O)Cc2cc(Cl)c(NC(=O)c3csc4ccccc34)cc2Cl)s1 [Example 28, 3-[2-[1-[[4-[(3-Benzo[b]thienylcarbonyl)amino]-2,5-dichlorophenyl]acetyl]-(2S)-pyrrolidinyl]-5-thiazolyl]propionic acid]
36 nM | O=C(O)CCc1cnc([C@@H]2[C@@H](O)CCN2C(=O)Cc2cc(Cl)c(Nc3nc4ccccc4o3)cc2Cl)s1 [Example 118, 3-[2-[1-[4-(2-Benzoxazolyl)amino-2,5-dichlorophenyl]acetyl-(3S)-hydroxy-(2S)-pyrrolidinyl]-5-thiazolyl]propionic acid]
10 nM | CCO[C@H]1CCN(C(=O)Cc2cc(Cl)c(NC(=O)c3cn(C)c4ccccc34)cc2Cl)[C@@H]1c1ncc(CCC(=O)O)s1 [Example 92, 3-[2-[1-[[2,5-Dichloro-4-(1-methyl-3-indolylcarbonylamino)phenyl]acetyl]-(3S)-ethoxy-(2S)-pyrrolidinyl]-5-thiazolyl]propionic acid]
3 nM | CC(C)O[C@H]1C[C@@H](c2ncc(CCC(=O)O)s2)N(C(=O)Cc2cc(Cl)c(NC(=O)c3cn(C)c4ccccc34)cc2F)C1 [Example 35, 3-[2-[1-[5-Chloro-2-fluoro-4-(1-methyl-3-indolylcarbonyl)aminophenylacetyl]-(4S)-isopropoxy-(2S)-pyrrolidinyl]-5-thiazolyl]propionic acid]
3.3 nM | CC(C)O[C@H]1C[C@@H](c2ncc(CCC(=O)O)s2)N(C(=O)Cc2cc(Cl)c(NC(=O)c3coc4ccccc34)cc2F)C1 [Example 38]
40 nM | O=C(O)CCc1cnc([C@@H]2[C@@H](O)CCN2C(=O)Cc2ccc(Nc3nc4ccccc4o3)c(Cl)c2)s1 [Example 116, 3-[2-[1-[4-(2-Benzoxazolyl)amino-3-chlorophenyl]acetyl-(3S)-hydroxy-(2S)-pyrrolidinyl]-5-thiazolyl]propionic acid]
5.8 nM | CO[C@H]1C[C@@H](c2cc(CCC(=O)O)on2)N(C(=O)Cc2cc(Cl)c(NC(=O)c3cn(C)c4ccccc34)cc2Cl)C1 [Example 30, 3-[3-[1-[2,5-Dichloro-4-(1-methyl-3-indolylcarbonylamino)phenylacetyl]-(4S)-methoxy-(2S)-pyrrolidinyl]-5-isoxazole]propionic acid]
2.1 nM | CO[C@H]1C[C@@H](c2cc(CCC(=O)O)on2)N(C(=O)Cc2cc(Cl)c(NC(=O)c3csc4ccccc34)cc2Cl)C1 [Example 32, 3-[3-[1-[[4-[(3-Benzo[b]thienylcarbonyl)amino]-2,5-dichlorophenyl]acetyl]-(4S)-methoxy-(2S)-pyrrolidinyl]-5-isoxazolyl]propionic acid]
1.5 nM | COc1cc(CC(=O)N[C@@H](CC(C)C)c2cc(CCC(=O)O)on2)ccc1NC(=O)Nc1ccccc1C [CP664511]

SMILES | Ki
Cn1cc(C(=O)Nc2cc(F)c(CC(=O)N3C[C@@H](OC4CCC4)C[C@H]3c3ncc(CCC(=O)O)s3)cc2Cl)c2ccccc21 [Example 40, 3-[2-[1-[5-Chloro-2-fluoro-4-(1-methyl-3-indolylcarbonyl)aminophenylacetyl]-(4S)-cyclobutoxy-(2S)-pyrrolidinyl]-5-thiazolyl]propionic acid] | 4 nM
Cn1cc(C(=O)Nc2cc(Cl)c(CC(=O)N3C[C@@H](OC4CCC4)C[C@H]3c3ncc(CCC(=O)O)s3)cc2Cl)c2ccccc21 [Example 39, 3-[2-[1-[2,5-Dichloro-4-(1-methyl-3-indolylcarbonylamino)phenylacetyl]-(4S)-cyclobutoxy-(2S)-pyrrolidinyl]-5-thiazolyl]propionic acid] | 6.3 nM
